Test results published in the kinase profiling compilation of Christmann-Franck et al. (2016).

Columns and labels:
Assay in all cases: KINOMEscan competition binding
Conditions in all cases: compound 10.0 µM
PLK4 (human) = PLK4 (human) (UniProt O00444)
MAPK3 (human) = MAPK3 (human) (UniProt P27361)
NEK6 (human) = NEK6 (human) (UniProt Q9HC98)
ROCK2 (human) = ROCK2 (human) (UniProt O75116)
CSNK1G1 (human) = CSNK1G1 (human) (UniProt Q9HCP0)
WEE1 (human) = WEE1 (human) (UniProt P30291)
INSRR (human) = INSRR (human) (UniProt P14616)
CDK18 (human) = CDK18 (human) (UniProt Q07002)
MYLK2 (human) = MYLK2 (human) (UniProt Q9H1R3)
MAPK9 (human) = MAPK9 (human) (UniProt P45984)
TSSK1B (human) = TSSK1B (human) (UniProt Q9BXA7)
TAOK1 (human) = TAOK1 (human) (UniProt Q7L7X3)
PIM1 (human) = PIM1 (human) (UniProt P11309)
PAK2 (human) = PAK2 (human) (UniProt Q13177)
STK35 (human) = STK35 (human) (UniProt Q8TDR2)
RIPK1 (human) = RIPK1 (human) (UniProt Q13546)
MST1R (human) = MST1R (human) (UniProt Q04912)
MET (human) = MET (human) (UniProt P08581)
BTK (human) = BTK (human) (UniProt Q06187)
PIM2 (human) = PIM2 (human) (UniProt Q9P1W9)
FLT3 (human) = FLT3 (human) (UniProt P36888)
FYN (human) = FYN (human) (UniProt P06241)
GSK3B (human) = GSK3B (human) (UniProt P49841)
MAP3K11 (human) = MAP3K11 (human) (UniProt Q16584)
EPHB3 (human) = EPHB3 (human) (UniProt P54753)
RIPK2 (human) = RIPK2 (human) (UniProt O43353)
PAK7 (human) = PAK7 (human) (UniProt Q9P286)
AAK1 (human) = AAK1 (human) (UniProt Q2M2I8)
STK32B (human) = STK32B (human) (UniProt Q9NY57)
MAP3K7 (human) = MAP3K7 (human) (UniProt O43318)
[1] = biological target: JAK1 JH1 catalytic (human) (UniProt P23458)
EIF2AK2 (human) = EIF2AK2 (human) (UniProt P19525)
ROCK1 (human) = ROCK1 (human) (UniProt Q13464)
DYRK1A (human) = DYRK1A (human) (UniProt Q13627)
[2] = tested on: KIT (human), P10721 [L576P]

Sequence of WEE1 (human) (P30291 whole entry, looked up): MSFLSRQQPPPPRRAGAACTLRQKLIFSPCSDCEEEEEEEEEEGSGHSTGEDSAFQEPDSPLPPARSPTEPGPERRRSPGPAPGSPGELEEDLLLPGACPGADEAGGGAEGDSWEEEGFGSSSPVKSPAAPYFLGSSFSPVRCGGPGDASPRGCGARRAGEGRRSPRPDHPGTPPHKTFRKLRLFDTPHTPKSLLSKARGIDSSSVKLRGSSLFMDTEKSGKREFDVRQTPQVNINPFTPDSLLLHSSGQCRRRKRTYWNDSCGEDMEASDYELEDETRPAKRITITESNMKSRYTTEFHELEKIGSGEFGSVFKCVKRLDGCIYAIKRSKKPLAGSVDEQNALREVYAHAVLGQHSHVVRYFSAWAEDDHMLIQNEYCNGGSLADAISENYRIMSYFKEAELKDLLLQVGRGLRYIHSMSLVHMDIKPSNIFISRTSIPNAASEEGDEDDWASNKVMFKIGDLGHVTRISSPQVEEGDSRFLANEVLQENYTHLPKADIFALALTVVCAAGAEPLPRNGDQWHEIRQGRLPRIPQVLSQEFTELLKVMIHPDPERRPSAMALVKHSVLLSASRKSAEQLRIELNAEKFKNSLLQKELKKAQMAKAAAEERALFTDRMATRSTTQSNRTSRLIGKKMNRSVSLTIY
Sequence of PLK4 (human) (O00444 whole entry, looked up): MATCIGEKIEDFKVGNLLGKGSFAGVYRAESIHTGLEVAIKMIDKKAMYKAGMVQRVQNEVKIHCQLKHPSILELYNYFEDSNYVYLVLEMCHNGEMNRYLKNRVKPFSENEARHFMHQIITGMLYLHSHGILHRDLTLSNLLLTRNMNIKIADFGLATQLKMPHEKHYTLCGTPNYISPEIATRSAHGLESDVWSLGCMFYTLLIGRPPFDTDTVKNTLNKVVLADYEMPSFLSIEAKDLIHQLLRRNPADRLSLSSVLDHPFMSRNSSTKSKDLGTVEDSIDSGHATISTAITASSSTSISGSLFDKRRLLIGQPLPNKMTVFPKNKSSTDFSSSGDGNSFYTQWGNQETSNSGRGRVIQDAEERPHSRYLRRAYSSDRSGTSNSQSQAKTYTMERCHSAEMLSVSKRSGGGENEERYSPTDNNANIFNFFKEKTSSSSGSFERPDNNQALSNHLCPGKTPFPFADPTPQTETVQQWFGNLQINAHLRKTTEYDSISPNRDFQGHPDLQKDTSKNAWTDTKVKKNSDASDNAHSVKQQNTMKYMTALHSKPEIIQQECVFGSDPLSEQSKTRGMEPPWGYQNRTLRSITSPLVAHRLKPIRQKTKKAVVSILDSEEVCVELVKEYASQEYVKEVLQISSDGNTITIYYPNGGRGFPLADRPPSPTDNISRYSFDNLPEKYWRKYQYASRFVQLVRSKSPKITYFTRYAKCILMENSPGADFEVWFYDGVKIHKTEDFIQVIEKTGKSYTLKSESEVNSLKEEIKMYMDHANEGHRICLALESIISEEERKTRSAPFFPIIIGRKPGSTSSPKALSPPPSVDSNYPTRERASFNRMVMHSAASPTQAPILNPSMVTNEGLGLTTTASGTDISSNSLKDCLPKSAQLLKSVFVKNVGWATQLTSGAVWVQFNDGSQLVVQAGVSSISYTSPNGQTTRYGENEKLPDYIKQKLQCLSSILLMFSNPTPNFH
Sequence of FYN (human) (P06241 whole entry, looked up): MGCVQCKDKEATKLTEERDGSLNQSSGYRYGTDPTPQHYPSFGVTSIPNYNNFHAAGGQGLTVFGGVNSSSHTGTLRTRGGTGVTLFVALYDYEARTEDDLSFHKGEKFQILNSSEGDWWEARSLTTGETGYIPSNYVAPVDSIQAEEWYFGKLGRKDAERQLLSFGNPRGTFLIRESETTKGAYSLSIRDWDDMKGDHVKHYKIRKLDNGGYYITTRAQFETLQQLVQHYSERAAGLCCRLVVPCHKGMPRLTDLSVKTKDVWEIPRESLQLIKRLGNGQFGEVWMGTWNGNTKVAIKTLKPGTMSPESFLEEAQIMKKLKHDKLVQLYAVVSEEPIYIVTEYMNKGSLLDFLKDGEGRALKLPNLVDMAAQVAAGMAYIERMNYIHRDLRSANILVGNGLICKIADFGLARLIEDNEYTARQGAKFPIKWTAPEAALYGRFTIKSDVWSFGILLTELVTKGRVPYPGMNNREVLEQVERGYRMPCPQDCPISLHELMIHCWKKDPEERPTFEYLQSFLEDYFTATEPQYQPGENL
Sequence of MET (human) (P08581 whole entry, looked up): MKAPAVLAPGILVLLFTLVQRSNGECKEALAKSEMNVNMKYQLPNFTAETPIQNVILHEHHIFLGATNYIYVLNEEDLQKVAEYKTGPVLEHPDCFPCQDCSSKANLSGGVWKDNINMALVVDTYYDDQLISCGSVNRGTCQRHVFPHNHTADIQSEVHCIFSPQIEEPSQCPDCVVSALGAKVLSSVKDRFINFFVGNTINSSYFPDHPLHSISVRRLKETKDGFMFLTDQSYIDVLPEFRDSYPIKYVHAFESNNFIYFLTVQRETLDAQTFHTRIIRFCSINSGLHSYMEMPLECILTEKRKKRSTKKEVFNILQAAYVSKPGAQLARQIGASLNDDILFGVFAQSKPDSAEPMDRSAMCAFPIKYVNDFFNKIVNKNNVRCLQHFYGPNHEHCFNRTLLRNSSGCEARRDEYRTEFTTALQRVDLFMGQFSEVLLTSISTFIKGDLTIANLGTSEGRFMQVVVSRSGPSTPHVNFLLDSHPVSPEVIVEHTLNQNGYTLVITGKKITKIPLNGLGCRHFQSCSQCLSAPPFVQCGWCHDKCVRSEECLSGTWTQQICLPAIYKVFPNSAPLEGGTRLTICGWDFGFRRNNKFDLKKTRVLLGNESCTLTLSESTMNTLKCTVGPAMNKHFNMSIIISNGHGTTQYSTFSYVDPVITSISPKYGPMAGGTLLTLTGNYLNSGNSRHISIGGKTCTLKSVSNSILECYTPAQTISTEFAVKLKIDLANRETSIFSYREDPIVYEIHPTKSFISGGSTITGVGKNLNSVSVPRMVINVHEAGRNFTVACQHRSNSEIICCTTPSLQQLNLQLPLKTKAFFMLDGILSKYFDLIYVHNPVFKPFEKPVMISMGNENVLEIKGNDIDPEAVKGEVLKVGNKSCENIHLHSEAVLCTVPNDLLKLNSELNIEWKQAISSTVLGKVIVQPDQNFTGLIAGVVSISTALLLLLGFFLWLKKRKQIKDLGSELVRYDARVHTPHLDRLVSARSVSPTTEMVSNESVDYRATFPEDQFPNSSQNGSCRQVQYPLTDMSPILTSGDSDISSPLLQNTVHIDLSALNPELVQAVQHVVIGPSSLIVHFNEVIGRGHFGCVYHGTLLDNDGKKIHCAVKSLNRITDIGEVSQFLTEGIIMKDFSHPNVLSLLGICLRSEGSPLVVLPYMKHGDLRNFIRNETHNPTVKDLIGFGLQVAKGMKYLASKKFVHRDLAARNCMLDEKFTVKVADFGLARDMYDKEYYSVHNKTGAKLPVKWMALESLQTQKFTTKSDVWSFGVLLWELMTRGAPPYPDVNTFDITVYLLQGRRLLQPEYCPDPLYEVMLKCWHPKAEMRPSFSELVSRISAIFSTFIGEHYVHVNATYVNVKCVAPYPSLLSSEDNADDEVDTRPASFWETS
Sequence of MAP3K7 (human) (O43318 whole entry, looked up): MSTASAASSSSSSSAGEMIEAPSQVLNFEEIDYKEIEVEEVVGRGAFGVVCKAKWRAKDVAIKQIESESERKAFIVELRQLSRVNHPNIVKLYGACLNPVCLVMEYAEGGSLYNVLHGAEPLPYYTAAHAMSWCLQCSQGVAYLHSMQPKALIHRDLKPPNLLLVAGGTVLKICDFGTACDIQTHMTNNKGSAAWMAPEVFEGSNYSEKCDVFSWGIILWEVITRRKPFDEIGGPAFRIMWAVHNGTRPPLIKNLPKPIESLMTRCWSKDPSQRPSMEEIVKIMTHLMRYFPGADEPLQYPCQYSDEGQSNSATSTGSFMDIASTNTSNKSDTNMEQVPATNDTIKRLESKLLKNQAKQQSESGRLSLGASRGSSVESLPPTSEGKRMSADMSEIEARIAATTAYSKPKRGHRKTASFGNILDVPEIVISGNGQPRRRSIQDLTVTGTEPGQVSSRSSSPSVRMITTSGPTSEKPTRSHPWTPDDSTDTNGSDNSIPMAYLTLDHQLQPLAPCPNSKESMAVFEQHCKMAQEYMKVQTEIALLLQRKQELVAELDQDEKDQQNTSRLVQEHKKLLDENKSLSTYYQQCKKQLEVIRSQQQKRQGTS
Sequence of CDK18 (human) (Q07002 whole entry, looked up): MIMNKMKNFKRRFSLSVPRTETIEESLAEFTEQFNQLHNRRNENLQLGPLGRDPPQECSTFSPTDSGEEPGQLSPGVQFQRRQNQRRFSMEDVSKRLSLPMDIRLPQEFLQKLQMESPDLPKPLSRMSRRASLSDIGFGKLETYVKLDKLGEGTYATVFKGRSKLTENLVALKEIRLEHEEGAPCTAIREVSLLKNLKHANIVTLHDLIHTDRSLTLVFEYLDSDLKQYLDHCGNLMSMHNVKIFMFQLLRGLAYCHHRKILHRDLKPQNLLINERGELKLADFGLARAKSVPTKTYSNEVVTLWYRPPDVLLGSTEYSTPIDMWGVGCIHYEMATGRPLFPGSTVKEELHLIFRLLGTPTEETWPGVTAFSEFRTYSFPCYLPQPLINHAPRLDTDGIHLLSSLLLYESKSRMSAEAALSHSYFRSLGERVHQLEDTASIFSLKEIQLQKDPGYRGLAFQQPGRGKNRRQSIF
Sequence of TSSK1B (human) (Q9BXA7 whole entry, looked up): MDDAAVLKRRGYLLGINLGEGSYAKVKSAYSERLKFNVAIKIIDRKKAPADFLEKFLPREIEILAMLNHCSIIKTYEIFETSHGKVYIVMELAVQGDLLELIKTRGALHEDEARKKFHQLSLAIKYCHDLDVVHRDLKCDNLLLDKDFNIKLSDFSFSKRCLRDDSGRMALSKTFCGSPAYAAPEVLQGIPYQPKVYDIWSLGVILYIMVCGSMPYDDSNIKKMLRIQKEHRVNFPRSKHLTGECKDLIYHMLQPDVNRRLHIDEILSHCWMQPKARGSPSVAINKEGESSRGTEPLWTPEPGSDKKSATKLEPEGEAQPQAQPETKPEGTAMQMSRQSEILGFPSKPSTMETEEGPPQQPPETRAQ

| kinase still bound, per cent of control (PLK4 (human)) | kinase still bound, per cent of control (MAPK3 (human)) | kinase still bound, per cent of control (NEK6 (human)) | kinase still bound, per cent of control (CSNK1G1 (human)) | kinase still bound, per cent of control (WEE1 (human)) | kinase still bound, per cent of control (INSRR (human)) | kinase still bound, per cent of control (CDK18 (human)) | kinase still bound, per cent of control (MYLK2 (human)) | kinase still bound, per cent of control (MAPK9 (human)) | kinase still bound, per cent of control (TSSK1B (human)) | kinase still bound, per cent of control (PIM1 (human)) | kinase still bound, per cent of control (PAK2 (human)) | kinase still bound, per cent of control (RIPK1 (human)) | kinase still bound, per cent of control (MET (human)) | kinase still bound, per cent of control (BTK (human)) | kinase still bound, per cent of control (PIM2 (human)) | kinase still bound, per cent of control (FLT3 (human)) | kinase still bound, per cent of control (FYN (human)) | kinase still bound, per cent of control (GSK3B (human)) | kinase still bound, per cent of control (EPHB3 (human)) | Compound | further results |
| --- | --- | --- | --- | --- | --- | --- | --- | --- | --- | --- | --- | --- | --- | --- | --- | --- | --- | --- | --- | --- | --- |
| 4.5% | 100% | 100% | 16% | 100% | 3.2% | 100% | 100% | 100% | 100% | 100% | 100% | 100% | 1% | 0.65% | 100% | 2.4% | 8.1% | 100% | 100% | CNC(=O)c1ccc(Nc2cc(Nc3ccccc3S(=O)(=O)C(C)C)c3cc[nH]c3n2)nc1 | kinase still bound, per cent of control (ROCK2 (human)): 0.95%; kinase still bound, per cent of control (TAOK1 (human)): 0.65%; kinase still bound, per cent of control (STK35 (human)): 12%; kinase still bound, per cent of control (MST1R (human)): 100%; kinase still bound, per cent of control (MAP3K11 (human)): 7.2%; kinase still bound, per cent of control (RIPK2 (human)): 100%; kinase still bound, per cent of control (PAK7 (human)): 100%; kinase still bound, per cent of control (AAK1 (human)): 11%; kinase still bound, per cent of control (STK32B (human)): 100%; kinase still bound, per cent of control (MAP3K7 (human)): 0.35%; kinase still bound, per cent of control [1]: 2%; kinase still bound, per cent of control (EIF2AK2 (human)): 100% |
| 100% | 100% | 100% | 100% | 100% | 100% | 100% | 100% | 100% | 100% | 100% | 100% | 100% | 100% | 100% | 100% | 100% | 100% | 100% | 100% | CS(=O)(=O)N1CCN(Cc2cc3nc(-c4cccc5[nH]ncc45)nc(N4CCOCC4)c3s2)CC1 | kinase still bound, per cent of control (ROCK1 (human)): 100%; kinase still bound, per cent of control (ROCK2 (human)): 100%; kinase still bound, per cent of control (TAOK1 (human)): 100%; kinase still bound, per cent of control (STK35 (human)): 100%; kinase still bound, per cent of control (MST1R (human)): 100%; kinase still bound, per cent of control (RIPK2 (human)): 100%; kinase still bound, per cent of control (PAK7 (human)): 100%; kinase still bound, per cent of control (DYRK1A (human)): 100%; kinase still bound, per cent of control (AAK1 (human)): 100%; kinase still bound, per cent of control (STK32B (human)): 100%; kinase still bound, per cent of control (MAP3K7 (human)): 100%; kinase still bound, per cent of control [2]: 100%; kinase still bound, per cent of control [1]: 100%; kinase still bound, per cent of control (EIF2AK2 (human)): 100% |
| 100% | 100% | 100% | 100% | 100% | 100% | 100% | 100% | 100% | 100% | 100% | 100% | 100% | 100% | 100% | 100% | 100% | 100% | 100% | 100% | CCN(CC)CCCCNc1ncc2cc(-c3cc(OC)cc(OC)c3)c(NC(=O)NC(C)(C)C)nc2n1 | kinase still bound, per cent of control (MAP3K11 (human)): 100%; kinase still bound, per cent of control (RIPK2 (human)): 100%; kinase still bound, per cent of control (PAK7 (human)): 100%; kinase still bound, per cent of control (AAK1 (human)): 100%; kinase still bound, per cent of control (STK32B (human)): 100%; kinase still bound, per cent of control (EIF2AK2 (human)): 24% |
| 100% | 100% | 100% | 100% | 100% | 18% | 100% | 100% | 100% | 100% | 100% | 100% | 100% | 100% | 1.2% | 100% | 6% | 5.6% | 100% | 100% | C=CC(=O)Nc1ccc(CN(C(=O)Nc2c(Cl)c(OC)cc(OC)c2Cl)c2cc(Nc3ccc(N4CCN(C)CC4)cc3)ncn2)cc1 | kinase still bound, per cent of control (ROCK2 (human)): 100%; kinase still bound, per cent of control (TAOK1 (human)): 0.8%; kinase still bound, per cent of control (STK35 (human)): 100%; kinase still bound, per cent of control (MST1R (human)): 100%; kinase still bound, per cent of control (MAP3K11 (human)): 10%; kinase still bound, per cent of control (RIPK2 (human)): 100%; kinase still bound, per cent of control (PAK7 (human)): 100%; kinase still bound, per cent of control (AAK1 (human)): 100%; kinase still bound, per cent of control (STK32B (human)): 100%; kinase still bound, per cent of control (MAP3K7 (human)): 100%; kinase still bound, per cent of control [1]: 100%; kinase still bound, per cent of control (EIF2AK2 (human)): 100% |

| Compound | kinase still bound, per cent of control (PLK4 (human)) | kinase still bound, per cent of control (MAPK3 (human)) | kinase still bound, per cent of control (NEK6 (human)) | kinase still bound, per cent of control (CSNK1G1 (human)) | kinase still bound, per cent of control (WEE1 (human)) | kinase still bound, per cent of control (INSRR (human)) | kinase still bound, per cent of control (CDK18 (human)) | kinase still bound, per cent of control (MYLK2 (human)) | kinase still bound, per cent of control (MAPK9 (human)) | kinase still bound, per cent of control (TSSK1B (human)) | kinase still bound, per cent of control (PIM1 (human)) | kinase still bound, per cent of control (PAK2 (human)) | kinase still bound, per cent of control (RIPK1 (human)) | kinase still bound, per cent of control (MET (human)) | kinase still bound, per cent of control (BTK (human)) | kinase still bound, per cent of control (PIM2 (human)) | kinase still bound, per cent of control (FLT3 (human)) | kinase still bound, per cent of control (FYN (human)) | kinase still bound, per cent of control (GSK3B (human)) | kinase still bound, per cent of control (EPHB3 (human)) | further results |
| --- | --- | --- | --- | --- | --- | --- | --- | --- | --- | --- | --- | --- | --- | --- | --- | --- | --- | --- | --- | --- | --- |
| Cc1n[nH]c2ccc(-c3cncc(OC[C@@H](N)Cc4c[nH]c5ccccc45)c3)cc12 | 100% | 100% | 100% | 3.7% | 100% | 100% | 28% | 100% | 100% | 100% | 0.4% | 4.6% | 100% | 100% | 100% | 1.2% | 4.5% | 100% | 1% | 100% | kinase still bound, per cent of control (ROCK2 (human)): 0%; kinase still bound, per cent of control (TAOK1 (human)): 0.05%; kinase still bound, per cent of control (STK35 (human)): 100%; kinase still bound, per cent of control (MST1R (human)): 100%; kinase still bound, per cent of control (MAP3K11 (human)): 100%; kinase still bound, per cent of control (RIPK2 (human)): 100%; kinase still bound, per cent of control (PAK7 (human)): 16%; kinase still bound, per cent of control (AAK1 (human)): 1.8%; kinase still bound, per cent of control (STK32B (human)): 100%; kinase still bound, per cent of control (MAP3K7 (human)): 3.2%; kinase still bound, per cent of control [1]: 100%; kinase still bound, per cent of control (EIF2AK2 (human)): 100% |
